In patent publication US12312328B2, “Pyrazoline dihydroquinolones, pharmaceutical compositions, and uses” (Emory University, priority 2013, dated 2025):

What was measured:
[1] = Human liver microsomal stability; type: in vitro ADME; details: 60 minute assay
Procedure: Human liver microsomes were obtained from XenoTech. The reaction mixture was prepared with 0.5 mg/mL human liver microsomes, 100 mM potassium phosphate (pH 7.4), 5 mM magnesium chloride, 1 μM test compound. The reaction mixture was incubated in a shaking water bath at 37° C. for 3 minutes prior to the addition of NADPH (1 mM). Testosterone was run simultaneously in a separate vessel as a control. 100 μl aliquots were taken at 0, 10, 20, 30 and 60 minutes for both test compound and testosterone. The aliquots were combined immediately with 400 μl of ice cold 50/50 ACN/dH2O containing 0.1% formic acid and internal standard to terminate the reaction. The samples were then mixed and centrifuged to precipitate microsomal proteins. All samples were assayed by LC-MS/MS using electrospray ionization and multiple reaction monitoring and the peak area responses to internal standard of the compounds at each time point was compared to the peak area response at time 0 to determine the percent compound remaining. The human liver microsomal stability assays were performed by Absorption Systems.

[2] = tested on: MDR1-MDCK cell monolayers; assay: MDR1-MDCK permeability assay; type: in vitro ADME; details: MDR1-MDCK, 5 μM, 120 minutes
Procedure: The Papp and efflux ratio were calculated as described in the Methods. […] See Wang et al., International Journal of Pharmaceutics, 2005, 288, 349-359.
Cell monolayers were grown to confluence on collagen-coated, microporous, polycarbonate membranes in 12-well Costar Transwell® plates. The permeability assay buffer was Hanks Balanced Salt Solution containing 10 mM HEPES and 15 mM glucose at pH 7.4. The buffer in the receiver chamber also contained 1% bovine serum albumin. The dosing solution concentration in the assay buffer was 5 μM for each compound tested. The cell monolayers were dosed on the apical side (A-to-B) or basolateral side (B-to-A) and incubated at 37° C. with 5% CO2 in a humidified incubator. Samples were taken from the donor and receiver chambers at 120 minutes. Each determination was performed in duplicate. The co-dosed lucifer yellow flux was also measured for each monolayer to ensure no damage was inflicted to the cell monolayers during the flux period. All samples were assayed by LC-MS/MS using electrospray ionization. The apparent permeability (Papp) and percent recovery were calculated as follows. […] Human Liver Microsomal Stability

[3] = tested on: 42 different ion channels, G-protein coupled receptors, and transporters; assay: NIMH PDSP primary binding assay; details: 5 μM compound
Procedure: (§1) The actions of these two compounds at 5 μM on were tested 42 different ion channels, G-protein coupled receptors, and transporters via the National Institutes of Mental Health (NIMH) psychoactive drug screening program (PDSP).

Plasma stability, mouse = type: in vitro ADME; details: two-hour time-course
Procedure: (§2) Three analogs, (58) 997-33, (26)997-23 and (64) 997-57 were evaluated for plasma stability as well as aqueous solubility. […] The aqueous solubility of compounds (26)997-23 and (58) 997-33 was evaluated in oocyte recording buffer using nephelometry. […] In order to assess the potential BBB penetration, compounds (26)997-23 and (64)997-57 were selected for evaluation in the MDR1-MDCK permeability assay (FIG. 19). […] The same compounds were also evaluated for metabolic stability using human liver microsomes.

Plasma stability, rat = type: in vitro ADME; details: two-hour time-course
Procedure: as §2

H2 = target: T1, H2 (Homo sapiens, UniProt P25021); assay: NIMH PDSP Ki determination, H2; type: binding
T1 construct: NIMH PDSP (screening programme)
T1 sequence (P25021 whole entry): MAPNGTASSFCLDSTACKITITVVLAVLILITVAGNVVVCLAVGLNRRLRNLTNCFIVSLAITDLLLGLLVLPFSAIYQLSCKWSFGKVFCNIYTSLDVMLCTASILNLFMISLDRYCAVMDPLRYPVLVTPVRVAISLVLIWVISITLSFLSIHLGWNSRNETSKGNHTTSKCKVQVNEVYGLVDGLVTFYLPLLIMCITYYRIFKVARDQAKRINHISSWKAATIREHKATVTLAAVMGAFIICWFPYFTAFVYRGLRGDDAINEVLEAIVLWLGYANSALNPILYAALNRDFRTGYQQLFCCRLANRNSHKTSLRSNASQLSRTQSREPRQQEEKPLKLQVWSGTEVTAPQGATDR
Procedure: as §1

5-HT6 = target: T2, 5-HT6 (Homo sapiens, UniProt P50406); assay: NIMH PDSP Ki determination, 5-HT6; type: binding
T2 construct: NIMH PDSP (screening programme)
T2 sequence (P50406 whole entry, species assumed): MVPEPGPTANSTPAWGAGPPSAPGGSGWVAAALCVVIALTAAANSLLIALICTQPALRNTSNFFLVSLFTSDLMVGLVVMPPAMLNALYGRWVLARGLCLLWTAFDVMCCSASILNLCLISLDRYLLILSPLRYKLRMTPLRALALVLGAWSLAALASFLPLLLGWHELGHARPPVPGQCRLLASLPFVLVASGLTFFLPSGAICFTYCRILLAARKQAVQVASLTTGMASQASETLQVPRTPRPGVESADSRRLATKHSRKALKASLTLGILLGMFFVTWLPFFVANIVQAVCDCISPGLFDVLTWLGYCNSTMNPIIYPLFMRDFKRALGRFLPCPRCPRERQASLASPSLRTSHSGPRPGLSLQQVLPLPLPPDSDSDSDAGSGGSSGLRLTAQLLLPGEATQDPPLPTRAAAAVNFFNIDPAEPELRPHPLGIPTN
Procedure: as §1

kappa-opioid = target: T3, kappa-opioid (Homo sapiens, UniProt P41145); assay: NIMH PDSP Ki determination, kappa-opioid; type: binding
T3 construct: NIMH PDSP (screening programme)
T3 sequence (P41145 whole entry): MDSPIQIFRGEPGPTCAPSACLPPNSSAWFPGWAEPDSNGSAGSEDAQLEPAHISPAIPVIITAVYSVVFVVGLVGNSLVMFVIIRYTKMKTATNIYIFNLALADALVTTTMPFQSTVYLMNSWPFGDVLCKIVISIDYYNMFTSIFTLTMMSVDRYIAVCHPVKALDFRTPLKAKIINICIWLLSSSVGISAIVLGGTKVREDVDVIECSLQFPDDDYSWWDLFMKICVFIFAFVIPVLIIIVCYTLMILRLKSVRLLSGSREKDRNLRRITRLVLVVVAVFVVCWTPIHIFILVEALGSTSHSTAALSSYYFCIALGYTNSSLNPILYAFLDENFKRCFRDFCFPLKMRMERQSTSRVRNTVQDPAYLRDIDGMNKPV
Procedure: as §1

[4] = Aqueous solubility in oocyte recording buffer by nephelometry; type: physicochemical
Procedure: as §2

Plasma stability, human = type: in vitro ADME; details: two-hour time-course
Procedure: as §2

[5] = tested on: GluN2D receptor mutants Q801Y, L705F and A752V; assay: Inhibition of mutant GluN2D receptors (Q801Y, L705F and A752V); type: cell-based; details: racemic mixture, A752V versus wild type
Procedure: Mutations to the wild type GluN2D receptor (Q801Y, L705F and A752V) were described to decrease sensitivity of the GluN2D receptor to blockade by either DQP-1105 and/or QNZ-46 in the membrane proximal region of the bilobed ligand binding domain encoded by the S2 region of the polypeptide chain were evaluated. See Acker et al. and Hansen & Traynelis, J Neurosci, 2011, 31, 3650-3661.

GluN1/GluN2D = GluN1/GluN2D (Rattus norvegicus, UniProt Q62645); assay: Inhibition of GluN1/GluN2D responses: dependence on agonist concentration and on voltage; type: cell-based; details: 1 μM compound
GluN1/GluN2D, sequence (Q62645 28-1323, other chains not shown): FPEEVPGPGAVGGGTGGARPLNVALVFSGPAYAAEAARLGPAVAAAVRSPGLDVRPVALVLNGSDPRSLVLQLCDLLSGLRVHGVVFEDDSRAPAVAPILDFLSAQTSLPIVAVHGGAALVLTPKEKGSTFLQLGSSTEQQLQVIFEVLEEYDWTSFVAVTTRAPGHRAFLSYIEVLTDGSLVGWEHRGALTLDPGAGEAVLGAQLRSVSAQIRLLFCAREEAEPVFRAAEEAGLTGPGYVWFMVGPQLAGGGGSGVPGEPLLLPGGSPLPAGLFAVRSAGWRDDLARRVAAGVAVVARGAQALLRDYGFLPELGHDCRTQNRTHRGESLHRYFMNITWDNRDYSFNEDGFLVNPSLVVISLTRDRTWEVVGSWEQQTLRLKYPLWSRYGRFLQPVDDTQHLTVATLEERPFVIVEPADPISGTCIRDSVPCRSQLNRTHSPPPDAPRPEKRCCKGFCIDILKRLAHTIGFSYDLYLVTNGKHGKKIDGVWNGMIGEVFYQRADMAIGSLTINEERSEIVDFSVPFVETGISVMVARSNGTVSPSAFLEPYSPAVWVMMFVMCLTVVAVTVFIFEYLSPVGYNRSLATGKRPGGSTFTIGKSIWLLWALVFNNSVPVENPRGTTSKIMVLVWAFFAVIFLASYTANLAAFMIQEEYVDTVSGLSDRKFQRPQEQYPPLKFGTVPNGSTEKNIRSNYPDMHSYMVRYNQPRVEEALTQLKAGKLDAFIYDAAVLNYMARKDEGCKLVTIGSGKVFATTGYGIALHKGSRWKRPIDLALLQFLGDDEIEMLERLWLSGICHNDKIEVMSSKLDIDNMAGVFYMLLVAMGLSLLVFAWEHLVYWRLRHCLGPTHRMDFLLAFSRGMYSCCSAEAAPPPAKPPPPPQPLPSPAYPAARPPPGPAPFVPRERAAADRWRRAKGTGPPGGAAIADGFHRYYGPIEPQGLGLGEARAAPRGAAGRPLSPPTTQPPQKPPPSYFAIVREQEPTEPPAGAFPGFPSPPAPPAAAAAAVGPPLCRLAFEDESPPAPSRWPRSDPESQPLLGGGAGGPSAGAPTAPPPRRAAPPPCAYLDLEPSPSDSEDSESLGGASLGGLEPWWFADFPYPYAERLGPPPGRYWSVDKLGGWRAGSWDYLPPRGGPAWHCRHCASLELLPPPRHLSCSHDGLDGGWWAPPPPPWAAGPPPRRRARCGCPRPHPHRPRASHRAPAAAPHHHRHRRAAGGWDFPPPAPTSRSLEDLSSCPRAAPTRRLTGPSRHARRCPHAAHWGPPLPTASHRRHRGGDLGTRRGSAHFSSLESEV
Description: Although it is not intended that embodiments of this disclosure be limited by any mechanism, Acker et al. report a mechanism for noncompetitive inhibition by GluN2C/D N-methyl-d-aspartate receptor subunit-selective modulators. Molecular Pharmacology 2011, 80, 782-795.

GluN1/GluN2D receptors = GluN1/GluN2D receptors (Rattus norvegicus, UniProt P35439+Q62645); assay: Whole-cell patch clamp recordings of GluN1/GluN2D receptors expressed in HEK293 cells; type: cell-based
GluN1/GluN2D receptors, sequence (Q62645 28-1323, other chains not shown): as above
Procedure: The time course of recovery from inhibition could also be well described by a single exponential function, and the kOFF was determined by the y-intercept in the linear regression relationship between the reciprocal of the tau describing the onset of inhibition and the drug concentration.

5-HT1E = target: T4, 5-HT1E (Homo sapiens, UniProt P28566); assay: NIMH PDSP Ki determination, 5-HT1E; type: binding
T4 construct: NIMH PDSP (screening programme)
T4 sequence (P28566 whole entry, species assumed): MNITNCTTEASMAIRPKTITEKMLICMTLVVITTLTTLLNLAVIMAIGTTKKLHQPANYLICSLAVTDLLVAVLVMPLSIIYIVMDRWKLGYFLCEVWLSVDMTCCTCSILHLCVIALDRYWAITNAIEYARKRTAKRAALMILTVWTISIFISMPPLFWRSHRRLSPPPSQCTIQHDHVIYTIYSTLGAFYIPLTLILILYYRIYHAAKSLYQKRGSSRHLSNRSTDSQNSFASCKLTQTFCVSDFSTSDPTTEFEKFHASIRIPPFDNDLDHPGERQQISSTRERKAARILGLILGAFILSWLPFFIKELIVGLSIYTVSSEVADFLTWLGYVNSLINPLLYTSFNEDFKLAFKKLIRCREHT
Procedure: as §1

mu-opioid = target: T5, mu-opioid (Homo sapiens, UniProt P35372); assay: NIMH PDSP Ki determination, mu-opioid; type: binding
T5 construct: NIMH PDSP (screening programme)
T5 sequence (P35372 whole entry): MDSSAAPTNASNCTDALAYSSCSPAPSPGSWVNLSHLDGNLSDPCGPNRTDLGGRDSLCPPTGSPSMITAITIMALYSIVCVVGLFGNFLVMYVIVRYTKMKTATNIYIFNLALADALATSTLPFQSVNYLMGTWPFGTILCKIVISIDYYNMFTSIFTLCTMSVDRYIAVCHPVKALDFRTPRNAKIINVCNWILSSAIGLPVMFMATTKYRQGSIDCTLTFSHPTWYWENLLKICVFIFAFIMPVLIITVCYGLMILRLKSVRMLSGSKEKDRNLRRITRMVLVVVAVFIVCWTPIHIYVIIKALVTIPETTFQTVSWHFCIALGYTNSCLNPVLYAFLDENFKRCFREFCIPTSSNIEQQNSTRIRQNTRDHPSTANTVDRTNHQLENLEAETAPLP
Procedure: as §1

Compound	degradation in human liver microsomes, in words [1]	Papp A-B [2]	effect on receptors and transporters in primary binding assay [3]	plasma stability (Plasma stability, mouse)	plasma stability (Plasma stability, rat)	Ki (H2)	Ki (5-HT6)	Ki (kappa-opioid)	solubility [4]	plasma stability (Plasma stability, human)	effect of GluN2D mutations on degree of inhibition [5]	GluN1/GluN2D response remaining (GluN1/GluN2D; 30 μM glutamate and glycine, n=6)	GluN1/GluN2D response remaining (GluN1/GluN2D; 3 mM glutamate and glycine, n=6)	GluN1/GluN2D response remaining (GluN1/GluN2D; +30 mV, n=8)	GluN1/GluN2D response remaining (GluN1/GluN2D; −40 mV, n=8)	IC50 (GluN1/GluN2D receptors; HEK293 cells, n=4, read-out: IC50 for inhibition of the response under whole-cell voltage clamp)	Kd (GluN1/GluN2D receptors; calculated from kOFF and kON, read-out: dissociation constant KD)	Ki (5-HT1E)	Ki (mu-opioid)
O=C(O)CCC(=O)N1N=C(c2c(-c3ccc(Cl)cc3)c3ccccc3[nH]c2=O)CC1c1ccc(Cl)cc1 (racemic) [Compound 997-23, 4-(5-(4-Chlorophenyl)-3-(4-(4-chlorophenyl)-2-oxo-1,2-dihydroquinolin-3-yl)-4,5-dihydro-1H-pyrazol-1-yl)-4-oxobutanoic acid]	minimal degradation	0.47 ×10⁻⁶ cm/s	minimal effect	minimal degradation	minimal degradation	> 10 µM	> 10 µM	> 10 µM	> 80 µM	minimal degradation	significantly reduced the degree of inhibition								
O=C(O)/C=C/C(=O)N1N=C(c2c(-c3ccc(Br)cc3)c3ccccc3[nH]c2=O)CC1c1ccc(Cl)cc1 (racemic) [Compound 997-33, (E)-4-(3-(4-(4-Bromophenyl)-2-oxo-1,2-dihydroquinolin-3-yl)-5-(4-chlorophenyl)-4,5-dihydro-1H-pyrazol-1-yl)-4-oxobut-2-enoic acid]			minimal effect	minimal degradation	minimal degradation		> 10 µM	> 10 µM	> 80 µM	minimal degradation		4.1 ± 0.58 % of control	3.1 ± 0.50 % of control	4.8+1.2 % of control	4.9 ± 1.3 % of control	0.99 µM	0.99 µM	> 10 µM	> 10 µM
